Assay results as given in patent publication US8557820B2, “Crystal modifications of transmission dyes” (BASF SE, priority 2007, dated 2013).

Assay: Thermodynamic / phase stability of the crystal modification at 25° C.
Format: physicochemical
Experimental: This modification is therefore suitable in dispersions comprising micro-fine particles.
Advantageously, dispersions comprising this specific crystal modification are not subjected to phase transformations resulting in a crystal growth.
5 g of the compound obtained in Example A2 (modification (B)) and 5 g of the compound of formula (1) obtained in Example A1 are elutriated in 50 g N-methylpyrrolidone at 25° C.
The suspension is stirred for 3 days at 25° C.

CCN(CC)c1ccc(C(=O)c2ccccc2C(=O)N2CCN(C(=O)c3ccccc3C(=O)c3ccc(N(CC)CC)cc3O)CC2)c(O)c1 [crystal modification (C)]
thermodynamic stability of the crystal modification: thermodynamically stable
